Measured values: US20240122212A1 (SUNTORY HOLDINGS LIMITED, priority 2020, published 2024)

Columns and labels:
[1] = Degree of sweetness relative to sucrose; conditions: for degree of sweetness, median value: median of the range, sucrose = 1; for degree of sweetness at sweetness intensity of 0.3, times as much as that of sucrose: sweetness intensity 0.3; for degree of sweetness at sweetness intensity of 4.3, times as much as that of sucrose: sweetness intensity 4.3
From the text: The “sweetness intensity” means an intensity of sweetness of a substance. […] A numerical value obtained by multiplying the degree of sweetness by a concentration Brix value of glucose is the sweetness intensity of glucose in terms of sucrose. Thus, when a concentration of glucose in terms of sucrose is Brix 1.5, the sweetness intensity of glucose is 0.65×1.5=0.975. The sweetness intensity of a sweetener in terms of sucrose can be calculated from a degree of sweetness shown in the following table or a value of a known degree of sweetness.
For example, when the sweetness intensity of sucrose per unit concentration Brix 1 is defined as a degree of sweetness of 1, a degree of sweetness of rebaudioside D is about 200 to 250 (median value 225), a degree of sweetness of rebaudioside M is about 200 to 260 (median value 230), a degree of sweetness of rebaudioside B is about 325, a degree of sweetness of rebaudioside A is about 200 to 300 (median value 250), a degree of sweetness of rebaudioside N is about 200 to 250 (median value 225), a degree of sweetness of rebaudioside O is about 200 to 250 (median value 225), a degree of sweetness of rebaudioside E is about 70 to 80 (median value 75), a degree of sweetness of a Luo han guo extract (containing 40% of Mog V) is about 110 to 150 (median value 130), a degree of sweetness of mogroside V is about 240 to 300 (median value 270), and a degree of sweetness of thaumatin is about 2,000, and a degree of sweetness of brazzein is about 500 to 2,000 (median value 1,250). The numerical value obtained by multiplying these degrees of sweetness by a concentration (w/v % (considered to be the same as w/w % in the case of a beverage)) of the high-intensity sweetener in a fruit juice beverage is a sweetness intensity of the high-intensity sweetener. The relative ratio in degrees of sweetness of various sweeteners to the degree of sweetness of 1 of sucrose can be determined from a known sugar sweetness conversion table, and the like. In the present description, when a degree of sweetness is shown in a numerical value range, the median value may be used. However, a sweetener having different values in a degree of sweetness by literatures, a relative ratio in a degree of sweetness to the degree of sweetness of 1 of sucrose can be defined by a sensory test. Examples of such a sensory test include a method in which samples were prepared by adding sucrose having a sweetness intensity of Brix 3.0 to 5.0 in 0.5 increments to pure water, and of which a sucrose-added sample having a sweetness intensity equal to an aqueous solution of a sweetener in a predetermined concentration is selected.
Additionally, for a sweetener with a variable degree of sweetness as a sweetness intensity increases, degrees of sweetness in different concentrations are actually measured and plotted whereby a degree of sweetness in a predetermined concentration may be calculated from the obtained approximate curve.

[2] = Basic taste quality sensory evaluation by trained panelists, spitting test, against 6% sucrose control (Example 1); format: in vivo, human; conditions: scale −3 to 3, 0 = no difference from 6% sucrose control; D-allulose 8.57 w/v %, D-arabinose 10 w/v % in pure water; 4 panelists
Protocol: In each evaluation item, the rating on a scale of −3 point to 3 point was performed, with the case where there is no difference from the control solution being 0. Quicker in sweetness onset, higher sweetness intensity, shorter lingering sweet aftertaste, lower bitterness intensity, and shorter lingering bitter aftertaste compared to the control were rated near 3 points. Slower in sweetness onset, lower sweetness intensity, longer lingering sweet aftertaste, higher bitterness intensity, and longer lingering bitter aftertaste compared to the control were rated near −3 points. That is, the closer to 0 point, the closer to the control. The evaluation was carried out by those (4 persons) who received sensory trainings as panelists by spitting test. The amount of a sweet substance contained in each sample solution was adjusted to be equal to the control solution on the calculation. […] The energy (kcal/100 ml) was calculated from the amount of the sweetener added.

[3] = value used to design the sample solutions

| Compound | degree of sweetness, median value [1] | degree of sweetness at sweetness intensity of 0.3, times as much as that of sucrose [1, 3] | degree of sweetness at sweetness intensity of 4.3, times as much as that of sucrose [1, 3] | other results |
| --- | --- | --- | --- | --- |
| O=C(CO)[C@H](O)[C@H](O)[C@H](O)CO [D-Allulose] | – | – | – | degree of sweetness, times as much as that of sucrose [1, 3]: 0.7 times; Bitterness intensity [2]: −1 point; Lingering bitter aftertaste [2]: −0.625 point; Lingering sweet aftertaste [2]: 0.125 point; Quickness in sweetness onset [2]: 0.125 point; Sweetness intensity [2]: −0.125 point |
| O=C[C@H](O)[C@@H](O)[C@H](O)[C@H](O)CO [Glucose] | 0.65 | – | – | – |
| C[C@H](CC[C@@H](O[C@@H]1O[C@H](CO[C@@H]2O[C@H](CO)[C@@H](O)[C@H](O)[C@H]2O)[C@@H](O)[C@H](O)[C@H]1O[C@@H]1O[C@H](CO)[C@@H](O)[C@H](O)[C@H]1O)C(C)(C)O)[C@H]1CC[C@@]2(C)[C@@H]3CC=C4[C@@H](CC[C@H](O[C@@H]5O[C@H](CO[C@@H]6O[C@H](CO)[C@@H](O)[C@H](O)[C@H]6O)[C@@H](O)[C@H](O)[C@H]5O)C4(C)C)[C@]3(C)[C@H](O)C[C@]12C [mogroside V] | 270 | – | – | – |
| C=C1C[C@@]23CC[C@H]4[C@@](C)(CCC[C@@]4(C)C(=O)O[C@@H]4O[C@H](CO)[C@@H](O)[C@H](O)[C@H]4O)[C@@H]2CC[C@]1(O[C@@H]1O[C@H](CO)[C@@H](O)[C@H](O[C@@H]2O[C@H](CO)[C@@H](O)[C@H](O)[C@H]2O)[C@H]1O[C@@H]1O[C@H](CO)[C@@H](O)[C@H](O)[C@H]1O)C3 [rebaudioside A] | 250 | 100 times | 190.5 times | – |
| C=C1C[C@@]23CC[C@H]4[C@@](C)(CCC[C@@]4(C)C(=O)O[C@@H]4O[C@H](CO)[C@@H](O)[C@H](O)[C@H]4O[C@@H]4O[C@H](CO)[C@@H](O)[C@H](O)[C@H]4O)[C@@H]2CC[C@]1(O[C@@H]1O[C@H](CO)[C@@H](O)[C@H](O[C@@H]2O[C@H](CO)[C@@H](O)[C@H](O)[C@H]2O)[C@H]1O[C@@H]1O[C@H](CO)[C@@H](O)[C@H](O)[C@H]1O)C3 [rebaudioside D] | 225 | 100 times | 190.5 times | – |
| C=C1C[C@@]23CC[C@H]4[C@@](C)(CCC[C@@]4(C)C(=O)O[C@@H]4O[C@H](CO)[C@@H](O)[C@H](O)[C@H]4O[C@@H]4O[C@H](CO)[C@@H](O)[C@H](O)[C@H]4O)[C@@H]2CC[C@]1(O[C@@H]1O[C@H](CO)[C@@H](O)[C@H](O)[C@H]1O[C@@H]1O[C@H](CO)[C@@H](O)[C@H](O)[C@H]1O)C3 [rebaudioside E] | 75 | – | – | – |
| C=C1C[C@@]23CC[C@H]4[C@@](C)(CCC[C@@]4(C)C(=O)O[C@@H]4O[C@H](CO)[C@@H](O)[C@H](O[C@@H]5O[C@H](CO)[C@@H](O)[C@H](O)[C@H]5O)[C@H]4O[C@@H]4O[C@H](CO)[C@@H](O)[C@H](O)[C@H]4O)[C@@H]2CC[C@]1(O[C@@H]1O[C@H](CO)[C@@H](O)[C@H](O[C@@H]2O[C@H](CO)[C@@H](O)[C@H](O)[C@H]2O)[C@H]1O[C@@H]1O[C@H](CO)[C@@H](O)[C@H](O)[C@H]1O)C3 [rebaudioside M] | 230 | 100 times | 190.5 times | – |
| C=C1C[C@@]23CC[C@H]4[C@@](C)(CCC[C@@]4(C)C(=O)O[C@@H]4O[C@H](CO)[C@@H](O)[C@H](O[C@@H]5O[C@H](CO)[C@@H](O)[C@H](O)[C@H]5O)[C@H]4O[C@@H]4O[C@@H](C)[C@H](O)[C@@H](O)[C@H]4O)[C@@H]2CC[C@]1(O[C@@H]1O[C@H](CO)[C@@H](O)[C@H](O[C@@H]2O[C@H](CO)[C@@H](O)[C@H](O)[C@H]2O)[C@H]1O[C@@H]1O[C@H](CO)[C@@H](O)[C@H](O)[C@H]1O)C3 [rebaudioside N] | 225 | – | – | – |
| C=C1C[C@@]23CC[C@H]4[C@@](C)(CCC[C@@]4(C)C(=O)O[C@@H]4O[C@H](CO)[C@@H](O)[C@H](O[C@@H]5O[C@H](CO)[C@@H](O)[C@H](O)[C@H]5O)[C@H]4O[C@@H]4O[C@@H](C)[C@H](O)[C@@H](O[C@@H]5O[C@H](CO)[C@@H](O)[C@H](O)[C@H]5O)[C@H]4O)[C@@H]2CC[C@]1(O[C@@H]1O[C@H](CO)[C@@H](O)[C@H](O[C@@H]2O[C@H](CO)[C@@H](O)[C@H](O)[C@H]2O)[C@H]1O[C@@H]1O[C@H](CO)[C@@H](O)[C@H](O)[C@H]1O)C3 [rebaudioside O] | 225 | – | – | – |
| brazzein: sweet protein of Pentadiplandra brazzeana (QDKCKKVYENYPVSKCQLANQCNYDCKLDKHARSGECFYDEKRNLQCICDYCEY; UniProt P56552 1-54, looked up) | 1,250 | – | – | – |
